Experimental data published in patent publication EP2364976B1, “S1P receptor modulating compounds and use thereof” (EPIX Pharmaceuticals, Inc., priority 2007, dated 2007).

Target: T1, hS1P1 (Homo sapiens, UniProt P21453)
T1 construct: expressed in transfected cells
Test: hS1P1 EC50 (S1P receptor Ca2+ flux protocol, FLIPR, CHO K1 Gqi5 cells)
Assay type: cell-based
Conditions: several values per compound = repeat determinations as printed
Summary of the method: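 Calcium flux (FLIPR) in CHO K1 cells stably expressing Gqi5 and N-terminally V5-tagged human S1P1, loaded with calcium dye 90 min at RT. Peak fluorescence recorded 90 s after compound addition (10-point 3x dilution, 0.25% DMSO), normalized to 200 nM S1P (100%) and buffer (0%); EC50 from 4-parameter fit.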

T1 sequence (P21453 whole entry): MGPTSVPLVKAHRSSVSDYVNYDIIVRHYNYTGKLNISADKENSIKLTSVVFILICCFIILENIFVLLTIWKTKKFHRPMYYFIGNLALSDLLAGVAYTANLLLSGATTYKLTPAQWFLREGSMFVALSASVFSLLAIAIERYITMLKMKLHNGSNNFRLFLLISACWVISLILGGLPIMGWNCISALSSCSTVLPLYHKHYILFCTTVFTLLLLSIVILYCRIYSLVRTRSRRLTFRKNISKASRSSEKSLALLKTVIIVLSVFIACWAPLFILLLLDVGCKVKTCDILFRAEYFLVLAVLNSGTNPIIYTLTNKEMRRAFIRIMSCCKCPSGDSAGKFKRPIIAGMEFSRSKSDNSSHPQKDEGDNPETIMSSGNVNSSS

EC50 [nM] | Structure (SMILES)
87 | O=C(O)C1CN(Cc2ccc(-c3cc4cc(Cc5ncccn5)ccc4o3)c(F)c2)C1 [Reference Compound 100]
80 | O=C(c1ccccc1)c1ccc2oc(-c3ccc(CN4CC(C(=O)O)C4)cc3F)cc2c1 [Reference Compound 102, 1-((4-(5-Benzoylbenzofuran-2-yl)-3-fluorophenyl)methyl)azetidine-3-carboxylic acid]
2580 | O=C(O)C1CN(Cc2ccc(-c3cc4cc(Cc5ccccc5)nc(Cl)c4o3)c(F)c2)C1 [Reference Compound 107, 1-((4-(5-Benzyl-7-chlorofuro[2,3-c]pyridin-2-yl)-3-fluorophenyl)methyl)azetidine-3-carboxylic acid]
409 | O=C(O)C1CN(Cc2ccc(-c3cc4cc(Cc5ccccc5)ncc4o3)c(F)c2)C1 [Reference Compound 108, 1-((4-(5-Benzylfuro[2,3-c]pyridin-2-yl)-3-fluorophenyl)methyl)azetidine-3-carboxylic acid]
409 | O=C(O)C1CN(Cc2ccc(-c3cc4nc(Cc5ccccc5)ccc4o3)c(F)c2)C1 [Reference Compound 109, 1-((4-(5-Benzylfuro[3,2-b]pyridin-2-yl)-3-fluorophenyl)methyl)azetidine-3-carboxylic acid]
8 | O=C(O)C1CN(Cc2ccc(-c3nc4ccc(Cc5ccccc5)cc4o3)c(F)c2)C1 [Reference Compound 111, 1-((4-(6-Benzylbenzo[d]oxazol-2-yl)-3-fluorophenyl)methyl)azetidine-3-carboxylic acid]
19 | O=C(O)C1CN(Cc2ccc(-c3nc4cc(Cc5ccccc5)ccc4o3)c(F)c2)C1 [Reference Compound 112, 1-((4-(5-Benzylbenzo[d]oxazol-2-yl)-3-fluorophenyl)methyl)azetidine-3-carboxylic acid]
364 | O=C(O)C1CN(Cc2ccc(-c3nc4cc(Cc5ccccc5)ccc4o3)cc2)C1 [Reference Compound 113, 1-((4-(5-Benzylbenzo[d]oxazol-2-yl)phenyl)methyl)azetidine-3-carboxylic acid]
4950 | O=C(O)C1CN(Cc2ccc(-c3nc4ccc(Cc5ccccc5)cc4[nH]3)c(F)c2)C1 [Reference Compound 115, 1-((4-(5-Benzyl-1H-benzo[d]imidazol-2-yl)-3-fluorophenyl)methyl)azetidine-3-carboxylic acid]
12 | O=C(O)C1CN(Cc2ccc(-c3nc4cc(Oc5ccccc5)ccc4o3)c(F)c2)C1 [Reference Compound 116, 1-((3-Fluoro-4-(5-phenoxybenzo[d]oxazol-2-yl)phenyl)methyl)azetidine-3-carboxylic acid]
149 | O=C(O)C1CN(Cc2ccc(-c3nc4ccc(Cc5ccccc5)cc4s3)c(F)c2)C1 [Reference Compound 118, 1-((4-(6-Benzylbenzo[d]thiazol-2-yl)-3-fluorophenyl)methyl)azetidine-3-carboxylic acid]
1320 | O=C(O)C1CN(Cc2cnc(-c3cc4cc(Cc5ccccc5)ccc4o3)nc2)C1 [Reference Compound 121, 1-((2-(5-Benzylbenzofuran-2-yl)pyrimidin-5-yl)methyl)azetidine-3-carboxylic acid]
420 | Cc1nc(-c2cc3cc(Cc4ccccc4)ccc3o2)ccc1CN1CC(C(=O)O)C1 [Reference Compound 122, 1-((6-(5-Benzylbenzofuran-2-yl)-2-methylpyridin-3-yl)methyl)azetidine-3-carboxylic acid]
313 | CC(c1ccc(-c2cc3cc(Cc4ccccc4)ccc3o2)c(F)c1)N1CC(C(=O)O)C1 (centres unmarked) [Reference Compound 123, 1-(1-(4-(5-benzylbenzofuran-2-yl)-3-fluorophenyl)ethyl)azetidine-3-carboxylic acid]
